The structures appear in SMILES notation. Activity calls are given as the source filed them.

Experiment [1] deals with T1, Corticotropin-releasing factor receptor 2/Corticotropin-releasing factor-binding protein (Homo sapiens, UniProt P24387+Q13324).
T1 sequence (Q13324 whole entry): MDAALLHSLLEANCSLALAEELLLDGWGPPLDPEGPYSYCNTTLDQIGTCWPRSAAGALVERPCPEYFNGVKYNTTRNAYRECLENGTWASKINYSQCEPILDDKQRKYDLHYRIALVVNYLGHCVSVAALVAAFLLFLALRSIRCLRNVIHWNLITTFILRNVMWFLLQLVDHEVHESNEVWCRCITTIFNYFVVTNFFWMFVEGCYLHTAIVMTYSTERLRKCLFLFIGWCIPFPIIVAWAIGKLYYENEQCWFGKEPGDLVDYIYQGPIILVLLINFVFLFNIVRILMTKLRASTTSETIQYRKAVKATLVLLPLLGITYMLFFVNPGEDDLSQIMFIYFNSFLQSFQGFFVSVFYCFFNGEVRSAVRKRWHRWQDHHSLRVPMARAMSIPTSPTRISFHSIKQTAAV
T1 sequence (P24387 whole entry): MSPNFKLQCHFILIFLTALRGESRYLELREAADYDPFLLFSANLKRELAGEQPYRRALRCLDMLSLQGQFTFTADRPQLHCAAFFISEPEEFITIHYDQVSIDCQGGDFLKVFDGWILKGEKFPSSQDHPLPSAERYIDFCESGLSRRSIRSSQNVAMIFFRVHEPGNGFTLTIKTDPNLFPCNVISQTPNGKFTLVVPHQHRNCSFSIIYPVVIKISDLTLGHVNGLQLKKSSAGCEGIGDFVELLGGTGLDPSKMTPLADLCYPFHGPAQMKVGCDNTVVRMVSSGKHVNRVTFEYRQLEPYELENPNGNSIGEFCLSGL
Nature of the experiment: activators of CRF receptor 2 with binding protein – uHTS hits, confirmation (AID 602473). The experiment is classed as functional. To be noted: read-out: EC50_Mean.

Experiment [2] addresses T1, Corticotropin-releasing factor receptor 2/Corticotropin-releasing factor-binding protein. The experiment can be described thus: Dose Response confirmation of uHTS hits for small molecule antagonists of the CRF-binding protein and CRF-R2 receptor complex. The format is functional. To be noted: read-out: IC50_Mean.
The nature of experiment [3]: restored growth of temperature-sensitive Burl-1 yeast – whole organism, S. cerevisiae, Burl-1 ts mutant, luminescence, counter-screen for SUMOylation pathway inhibitor project, dose response (AID 463199). The format is functional.
A further experiment concerns HEK293. The experiment can be described thus: Fluorescence-based counterscreen for potentiators or agonists of NPY-Y2: cell-based high-throughput dose response assay to identify inhibitors of cyclic nucleotide gated ion channel (CNGC) activity. In this assay, the parental HEK293 cell line transfected with a cyclic-nucleotide gated ion channel (CNGC)-based cAMP sensor is used to measure inhibition of isoproterenol-induced CNGC activity by test compound. The experiment is classed as functional. To be noted: Homo sapiens.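 Further: stimulus is 1 µM isoproterenol at EC100 plus PDE inhibitor Ro 20-1724 at 25 µM.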

The target of experiment [4] is T2, Beta-2 adrenergic receptor (Homo sapiens, UniProt P07550). Nature of the experiment: ADRB2 activation measured by internalization – cell-based, FAP fluorogen, flow cytometry, cherry pick 1, dose response (AID 588763). The experiment is classed as functional. A general note: In flow cytometry, cells or beads pass a laser one at a time.
Experiment [5] concerns the target Neuropeptide Y receptor type 2 (Homo sapiens, UniProt P49146). Nature of the experiment: Fluorescence-based cell-based high-throughput dose response assay for agonists of NPY-Y2. [Related pubchem assays: 1703 (Screening assay (CNGC inhibitors).), 1359 (Screening assay (NPY-Y2 potentiators or agonists).), 1304 (Screening assay (NPY-Y1 potentiators or agonists).), 1710 (Screening assay (NPY-Y2 agonists).), 1791 (Summary AID.)]. The experiment is classed as functional.

Experiment [6] addresses T2, Beta-2 adrenergic receptor. The experiment can be described thus: Dose response for HTS for Beta-2AR agonists via FAP method from Powderset3. The format is functional.
Experiment [7] has as its target Neuropeptide Y receptor type 1 (Homo sapiens, UniProt P25929). The experiment can be described thus: Fluorescence-based counterscreen for agonists of NPY-Y2: cell-based high-throughput dose response assay for agonists of NPY-Y1. The experiment is classed as functional. A general note: Counterscreens check selectivity or assay interference.
Experiment [8] has as its system Candida albicans. Nature of the experiment: resistant Candida growth with fluconazole co-treatment – CaCi-8 strain, Alamar Blue, dry powder, set 2, dose response (AID 488909). The format is functional, organism-based. In general terms: Alamar Blue is a resazurin reagent that responds to reducing activity.
Experiment [9] concerns Candida albicans. The experiment can be described thus: Candida growth reduction in fluconazole presence – CaCi-2 strain, Alamar Blue, dry powder, set 2, antifungal resistance reversal project, dose response (AID 488930). The format is functional, organism-based.
In experiment [10] the test system is Candida albicans. Nature of the experiment: C. albicans growth inhibition with fluconazole – CaCi-2 strain, Alamar Blue, dry powder, set 4, dose response (AID 488943). The experiment is classed as functional, organism-based.
Experiment [11] relates to Candida albicans. Nature of the experiment: single-agent antifungal toxicity in C. albicans – CaCi-2 strain, Alamar Blue, dry powder, set 2, counter-screen for antifungal drug resistance project, dose response (AID 488893). The format is functional, organism-based.
For experiment [12], the system named is Candida albicans. Nature of the experiment: fluconazole-resistant Candida strain growth inhibitors – CaCi-8 strain, dry powder, set 4, dose response (AID 488950). The format is functional, organism-based.
For experiment [13], the target named is 5-hydroxytryptamine receptor 5A (Homo sapiens, UniProt P47898). Nature of the experiment: Counterscreen for agonists of OPRM1-OPRD1 heterodimerization: luminescence-based cell-based high throughput dose response assay to identify agonists of 5-hydroxytryptamine (serotonin) 5A receptor (HTR5A). [Related pubchem assays (depositor defined):AID504326, AID504355, AID504692, AID504904, AID504905]. The format is functional.

The next experiment deals with Mu-type opioid receptor (Homo sapiens, UniProt P35372). Nature of the experiment: Counterscreen for agonists of heterodimerization of the mu 1 (OPRM1) and delta 1 (OPRD1) opioid receptors: Luminescence-based cell-based high throughput dose response assay to identify agonists of OPRM1 homodimerization. The experiment is classed as functional.
Experiment [14] addresses Delta-type opioid receptor (Homo sapiens, UniProt P41143). Nature of the experiment: Counterscreen for agonists of heterodimerization of the mu 1 (OPRM1) and delta 1 (OPRD1) opioid receptors: Luminescence-based cell-based high throughput dose response assay to identify agonists of OPRD1 homodimerization. [Related pubchem assays (depositor defined):AID504326, AID504355, AID504692, AID504904, AID504905]. The experiment is classed as functional.

A short description of experiment [15]: NIH-3T3 fibroblast cytotoxicity, dose response, cytotoxicity control, cell-based, fluorescence, Alamar Blue, secondary assay (AID 2327).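 Further: NIH-3T3 mouse fibroblasts cultured with fluconazole at 8 µg/mL.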 The experiment is classed as functional.
In experiment [16] the target is ATP-dependent molecular chaperone HSP82 (Candida albicans (strain WO-1) (Yeast), UniProt C4YTQ8). The experiment can be described thus: steroid-induced GRE reporter decrease in yeast – S. cerevisiae, luminescence, Hsp90 inhibitor project, dose response (AID 2400).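 Further: beta-galactosidase luminescence from glucocorticoid response element reporter as proxy for Hsp90 function; inhibitor potency where signal loss means Hsp90 inhibition.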 The experiment is classed as functional, cell-based.
The target in experiment [17] is Serine/threonine-protein phosphatase (Candida dubliniensis (strain CD36 / CBS 7987 / NCPF 3949 / NRRLY-17841) (Yeast), UniProt B9W6M3). The experiment can be described thus: blockers of CaCl2-induced CDRE-lacZ signaling – S. cerevisiae, luminescence, secondary, dose response (AID 2388).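 Further: yeast reporter cells carrying a calcineurin-responsive lacZ construct stimulated with calcium chloride; luminescent beta-galactosidase reporter signal in whole cells rather than isolated phosphatase activity; potency for inhibition where a drop in reporter signal means calcineurin blockade.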 The experiment is classed as functional, cell-based.
The nature of experiment [18]: fluconazole-exposed Candida albicans growth modulators – fluorescence, retest, confirmation (AID 2467). The format is functional, cell-based.

T2 sequence (P07550 whole entry): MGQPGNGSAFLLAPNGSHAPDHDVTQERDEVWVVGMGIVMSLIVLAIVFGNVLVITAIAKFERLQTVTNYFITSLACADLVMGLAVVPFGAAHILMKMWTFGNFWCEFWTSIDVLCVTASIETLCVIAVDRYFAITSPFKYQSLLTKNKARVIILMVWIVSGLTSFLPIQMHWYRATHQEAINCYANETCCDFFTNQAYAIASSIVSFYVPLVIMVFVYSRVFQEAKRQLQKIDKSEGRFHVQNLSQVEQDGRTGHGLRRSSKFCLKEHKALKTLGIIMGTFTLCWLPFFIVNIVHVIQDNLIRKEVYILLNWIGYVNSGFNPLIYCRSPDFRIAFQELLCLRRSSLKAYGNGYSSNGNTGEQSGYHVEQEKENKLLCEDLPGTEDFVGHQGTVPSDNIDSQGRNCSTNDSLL
Chain of Mu-type opioid receptor (P35372 whole entry): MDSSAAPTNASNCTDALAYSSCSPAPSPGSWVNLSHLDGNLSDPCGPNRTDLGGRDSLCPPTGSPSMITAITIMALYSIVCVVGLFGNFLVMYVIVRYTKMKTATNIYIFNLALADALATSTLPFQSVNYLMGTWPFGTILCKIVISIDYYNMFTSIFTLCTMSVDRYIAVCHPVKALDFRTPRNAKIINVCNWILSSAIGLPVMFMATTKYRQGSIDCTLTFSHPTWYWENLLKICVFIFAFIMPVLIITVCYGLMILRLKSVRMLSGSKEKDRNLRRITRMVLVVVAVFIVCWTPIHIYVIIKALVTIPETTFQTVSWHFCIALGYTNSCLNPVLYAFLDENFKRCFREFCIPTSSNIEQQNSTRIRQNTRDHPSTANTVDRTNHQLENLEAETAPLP
Chain of ATP-dependent molecular chaperone HSP82 (C4YTQ8 whole entry): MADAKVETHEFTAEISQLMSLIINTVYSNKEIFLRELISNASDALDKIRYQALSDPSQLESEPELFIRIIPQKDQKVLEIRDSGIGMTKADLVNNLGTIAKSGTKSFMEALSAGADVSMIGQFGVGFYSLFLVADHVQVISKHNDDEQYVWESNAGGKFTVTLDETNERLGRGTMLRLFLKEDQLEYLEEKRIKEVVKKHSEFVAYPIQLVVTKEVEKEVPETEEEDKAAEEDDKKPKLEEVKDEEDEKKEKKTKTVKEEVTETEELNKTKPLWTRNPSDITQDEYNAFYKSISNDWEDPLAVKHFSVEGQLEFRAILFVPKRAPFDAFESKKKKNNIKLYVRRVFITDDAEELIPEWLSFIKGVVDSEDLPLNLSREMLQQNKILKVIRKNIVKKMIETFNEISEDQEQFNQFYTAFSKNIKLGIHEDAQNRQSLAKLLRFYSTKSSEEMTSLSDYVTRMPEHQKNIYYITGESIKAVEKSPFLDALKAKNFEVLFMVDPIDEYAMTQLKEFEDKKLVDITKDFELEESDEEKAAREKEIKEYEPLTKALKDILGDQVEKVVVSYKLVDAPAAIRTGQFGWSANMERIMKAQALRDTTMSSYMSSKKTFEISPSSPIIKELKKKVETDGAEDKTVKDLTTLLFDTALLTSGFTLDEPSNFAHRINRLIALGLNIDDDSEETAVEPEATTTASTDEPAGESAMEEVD
Chain of Neuropeptide Y receptor type 2 (P49146 whole entry): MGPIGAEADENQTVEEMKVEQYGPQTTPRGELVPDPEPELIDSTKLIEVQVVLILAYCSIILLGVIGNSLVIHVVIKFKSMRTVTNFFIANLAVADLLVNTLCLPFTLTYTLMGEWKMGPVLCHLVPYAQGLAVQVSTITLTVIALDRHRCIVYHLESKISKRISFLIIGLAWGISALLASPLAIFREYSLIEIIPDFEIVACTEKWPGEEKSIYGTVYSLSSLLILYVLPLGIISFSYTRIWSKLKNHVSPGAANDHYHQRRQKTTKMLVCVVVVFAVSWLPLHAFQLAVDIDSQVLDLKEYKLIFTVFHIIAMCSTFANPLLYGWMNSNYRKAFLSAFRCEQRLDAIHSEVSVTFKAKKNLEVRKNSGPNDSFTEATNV
Chain of 5-hydroxytryptamine receptor 5A (P47898 whole entry): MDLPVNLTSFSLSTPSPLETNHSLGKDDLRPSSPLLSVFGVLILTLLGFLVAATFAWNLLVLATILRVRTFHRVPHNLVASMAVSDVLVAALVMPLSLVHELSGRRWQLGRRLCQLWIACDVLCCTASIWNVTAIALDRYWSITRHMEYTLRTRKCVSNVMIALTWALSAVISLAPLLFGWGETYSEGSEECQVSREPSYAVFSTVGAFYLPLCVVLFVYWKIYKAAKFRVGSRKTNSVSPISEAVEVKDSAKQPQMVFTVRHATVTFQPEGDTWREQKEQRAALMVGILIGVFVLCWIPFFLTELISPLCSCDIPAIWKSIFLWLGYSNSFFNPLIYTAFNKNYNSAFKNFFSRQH
Chain of Serine/threonine-protein phosphatase (B9W6M3 whole entry): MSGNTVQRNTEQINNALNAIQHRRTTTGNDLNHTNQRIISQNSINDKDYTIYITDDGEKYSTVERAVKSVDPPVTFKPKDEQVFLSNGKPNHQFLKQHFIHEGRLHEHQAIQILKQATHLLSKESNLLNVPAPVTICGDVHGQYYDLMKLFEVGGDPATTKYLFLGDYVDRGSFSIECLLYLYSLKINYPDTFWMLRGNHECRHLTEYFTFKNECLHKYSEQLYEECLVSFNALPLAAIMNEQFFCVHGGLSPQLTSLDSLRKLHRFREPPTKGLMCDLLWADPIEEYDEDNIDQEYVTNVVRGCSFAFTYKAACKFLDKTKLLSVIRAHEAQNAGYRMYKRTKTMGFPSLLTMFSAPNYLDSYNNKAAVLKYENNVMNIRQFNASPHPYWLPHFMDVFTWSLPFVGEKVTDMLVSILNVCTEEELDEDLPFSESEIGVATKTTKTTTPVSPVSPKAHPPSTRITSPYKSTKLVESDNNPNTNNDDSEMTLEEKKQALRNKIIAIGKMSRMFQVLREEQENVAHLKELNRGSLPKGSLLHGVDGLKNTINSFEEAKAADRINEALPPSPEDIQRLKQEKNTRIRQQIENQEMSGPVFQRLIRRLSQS
Chain of Neuropeptide Y receptor type 1 (P25929 whole entry): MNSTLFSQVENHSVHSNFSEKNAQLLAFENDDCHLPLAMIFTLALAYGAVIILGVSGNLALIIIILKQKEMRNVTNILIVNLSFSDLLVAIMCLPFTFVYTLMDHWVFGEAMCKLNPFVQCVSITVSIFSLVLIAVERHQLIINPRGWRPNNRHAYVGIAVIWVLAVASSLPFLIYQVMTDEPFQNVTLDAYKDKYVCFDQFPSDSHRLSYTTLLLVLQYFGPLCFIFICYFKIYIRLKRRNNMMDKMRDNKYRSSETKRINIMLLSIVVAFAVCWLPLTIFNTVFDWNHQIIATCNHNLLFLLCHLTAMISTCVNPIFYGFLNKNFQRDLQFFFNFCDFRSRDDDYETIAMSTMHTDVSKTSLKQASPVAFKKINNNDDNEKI
Chain of Delta-type opioid receptor (P41143 whole entry): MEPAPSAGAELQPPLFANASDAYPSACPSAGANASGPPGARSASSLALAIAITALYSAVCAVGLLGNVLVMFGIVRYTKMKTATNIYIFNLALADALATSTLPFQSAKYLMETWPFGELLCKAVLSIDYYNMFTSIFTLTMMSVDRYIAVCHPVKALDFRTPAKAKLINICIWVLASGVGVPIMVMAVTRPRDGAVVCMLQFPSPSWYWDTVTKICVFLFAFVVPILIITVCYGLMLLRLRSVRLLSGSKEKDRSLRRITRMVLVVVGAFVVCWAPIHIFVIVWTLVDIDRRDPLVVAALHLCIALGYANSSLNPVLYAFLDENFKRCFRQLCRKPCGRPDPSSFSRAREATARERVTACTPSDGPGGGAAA

For `CCCCn1c(N)c(N(Cc2ccccc2OC)C(=O)c2c(CC)noc2C)c(=O)[nH]c1=O`, the EC50 in [1] is > 53 µM (inactive). Also, in experiment [2], the IC50 is > 47.1 µM (inactive). Further, the half-maximal activity concentration (AC50) in experiment [3] was 61.2 µM (active).

For `Clc1ccc(OCc2nnc(SCc3nc4ccccc4[nH]3)n2Cc2ccco2)cc1`, the EC50 was > 35.4 µM (not active) with HEK293; 0.205 µM (active) in experiment [4]; > 35.4 µM (not active) in experiment [5]; 0.0069 µM (active) in experiment [6]; > 35.4 µM (not active) in [7].

`O=C(c1ccc(F)cc1)N1CCN(c2ccnc3cc(Cl)ccc23)CC1`: the AC50 in the experiment on Candida albicans [8] is 3.2 µM (active); in the experiment on Candida albicans [9], 0.57 µM (active); in the experiment on Candida albicans [10], 1.33 µM (active); in the experiment on Candida albicans [11], > 260 µM (inactive); in the experiment with Candida albicans [12] it was 1.19 µM (active).

As to `Cc1ccc2cc(C(c3nnnn3Cc3ccccc3)N3CCc4ccccc43)c(O)nc2c1` (stereo not given), the EC50 (in experiment [13]; on Mu-type opioid receptor; in [14]) was > 92.5 µM (inactive) in each case.

As to `Oc1nc(S)nnc1Cc1ccc(Cl)c(Cl)c1`, the EC50 in experiment [15] is > 160 µM (inactive); in experiment [16], > 160 µM (inactive); in experiment [17] it was > 180 µM (inactive); in [18] it was 0.241 µM (active).

One may read the AC50 as the midpoint of the concentration-response curve, whichever way the signal moves.

Values taken from ChEMBL document CHEMBL1201862, “PubChem BioAssay data set” (2004).
